What was measured:
[1] = test system: CASOB (Sicklepod); assay: Preemergence herbicidal evaluation; format: in vivo, Cassia obtusifolia; settings: rated 4-5 weeks after treatment
Summary of the method: (§1)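 Seeds were planted in potting soil in cups, then sprayed preemergence with the test compound in aqueous acetone at about 0.0156 to 0.500 kg per hectare. Cups were kept under greenhouse conditions and visually rated 4–5 weeks after treatment on a 0–9 scale against an untreated control.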

[2] = test system: IPOHE (Morningglory, Ivyleaf); assay: Preemergence herbicidal evaluation; format: in vivo, Ipomoea hederacea; settings: rated 4-5 weeks after treatment
Summary of the method: as §1

[3] = test system: SAGPY (Arrowhead (Pygmaea)); assay: Preemergence weed control under flooded paddy conditions; format: in vivo, Sagittaria pygmaea; settings: rated 3-4 weeks after treatment
Summary of the method: (§2)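 Seeds or propagules sown in top 0.5 cm of silt loam soil, flooded 1.5 to 3 cm above surface throughout. Compound in 50/50 v/v aqueous/acetone pipetted into flood water at about 0.0313 to 0.500 kg/ha. Visual 0-9 rating versus control after three to four weeks in greenhouse.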

[4] = test system: GLXMAW (Soybean, Williams); assay: Postemergence herbicidal evaluation; format: in vivo, Glycine max, (L.) Merr. cv Williams
Summary of the method: (§3)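 ~2-wk seedlings; postemergence spray, 40 psi; vehicle 1:1 acetone:water + 0.5% Tween 20; rate ≈0.0156–0.500 kg/ha; greenhouse hold; scored 4–5 wk after treatment, 0–9 scale vs control; repeat tests averaged.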

[5] = test system: AMBEL (Ragweed, Common); assay: Postemergence herbicidal evaluation; format: in vivo, Ambrosia artemisifolia
Summary of the method: as §3

[6] = test system: AMBEL (Ragweed, Common); assay: Preemergence herbicidal evaluation; format: in vivo, Ambrosia artemisifolia; settings: rated 4-5 weeks after treatment
Summary of the method: as §1

[7] = test system: TRZAWR (Wheat, Winter, cv Riband); assay: Postemergence herbicidal evaluation; format: in vivo, Triticum aestivum
Summary of the method: as §3

[8] = test system: CHEAL (Lambsquarters, Common); assay: Preemergence herbicidal evaluation; format: in vivo, Chenopodium album; settings: rated 4-5 weeks after treatment
Summary of the method: as §1

[9] = test system: ECHCG (Barnyardgrass); assay: Postemergence herbicidal evaluation; format: in vivo, Echinochloa crus-galli
Summary of the method: as §3

[10] = test system: CHEAL (Lambsquarters, Common); assay: Postemergence herbicidal evaluation; format: in vivo, Chenopodium album
Summary of the method: as §3

[11] = test system: MOOVA (Monochoria); assay: Preemergence weed control under flooded paddy conditions; format: in vivo, Monochoria vaginalis; settings: rated 3-4 weeks after treatment
Summary of the method: as §2

[12] = test system: ABUTH (Velvetleaf); assay: Preemergence herbicidal evaluation; format: in vivo, Abutilon theophrasti; settings: rated 4-5 weeks after treatment
Summary of the method: as §1

[13] = test system: CASOB (Sicklepod); assay: Postemergence herbicidal evaluation; format: in vivo, Cassia obtusifolia
Summary of the method: as §3

[14] = test system: IPOHE (Morningglory, Ivyleaf); assay: Postemergence herbicidal evaluation; format: in vivo, Ipomoea hederacea
Summary of the method: as §3

[15] = test system: ORYSAT (Rice, Tebonnet); assay: Preemergence herbicidal evaluation; format: in vivo, Oryza sativa, (L.) Tebonnet; settings: rated 4-5 weeks after treatment
Summary of the method: as §1

[16] = test system: GLXMAW (Soybean, Williams); assay: Preemergence herbicidal evaluation; format: in vivo, Glycine max, (L.) Merr. cv Williams; settings: rated 4-5 weeks after treatment
Summary of the method: as §1

SMILES: Cn1c(C(F)(F)F)cc(=O)n(-c2cc(N=C3SCC(=O)N3CCC(=O)O)c(Cl)cc2F)c1=O [Compound 30, 2-{{2-Chloro-5-[3,6-dihydro-3-methyl-2,6-dioxo-4-(trifluoromethyl)-1(2H)-pyrimidinyl]-4-fluorophenyl}imino}-4-oxo-3-thiazolidinepropionic acid]
- Preemergence herbicidal rating CASOB ([1]; rate 0.0313 kg/ha): 0.0
- Preemergence herbicidal rating CASOB ([1]; rate 0.0625 kg/ha): 0.0
- Preemergence herbicidal rating CASOB ([1]; rate 0.1250 kg/ha): 1.0
- Preemergence herbicidal rating CASOB ([1]; rate 0.2500 kg/ha): 1.0
- Preemergence herbicidal rating IPOHE ([2]; rate 0.0313 kg/ha): 0.0
- Preemergence herbicidal rating IPOHE ([2]; rate 0.0625 kg/ha): 0.0
- Preemergence herbicidal rating IPOHE ([2]; rate 0.1250 kg/ha): 1.0
- Preemergence herbicidal rating IPOHE ([2]; rate 0.2500 kg/ha): 2.0
- Herbicidal rating SAGPY ([3]; 0.1250 kg/ha): 0.0
- Herbicidal rating SAGPY ([3]; 0.2500 kg/ha): 2.0
- Postemergence herbicidal rating GLXMAW ([4]; Rate 0.0158 kg/ha): 6.5
- Postemergence herbicidal rating GLXMAW ([4]; Rate 0.0315 kg/ha): 6.5
- Postemergence herbicidal rating GLXMAW ([4]; Rate 0.0630 kg/ha): 6.5
- Postemergence herbicidal rating AMBEL ([5]; Rate 0.0158 kg/ha): 0.0
- Postemergence herbicidal rating AMBEL ([5]; Rate 0.0315 kg/ha): 0.0
- Postemergence herbicidal rating AMBEL ([5]; Rate 0.0630 kg/ha): 1.0
- Preemergence herbicidal rating AMBEL ([6]; rate 0.0313 kg/ha): 0.0
- Preemergence herbicidal rating AMBEL ([6]; rate 0.0625 kg/ha): 1.0
- Preemergence herbicidal rating AMBEL ([6]; rate 0.1250 kg/ha): 5.0
- Preemergence herbicidal rating AMBEL ([6]; rate 0.2500 kg/ha): 6.0
- Postemergence herbicidal rating TRZAWR ([7]; Rate 0.0158 kg/ha): 4.0
- Postemergence herbicidal rating TRZAWR ([7]; Rate 0.0315 kg/ha): 4.5
- Postemergence herbicidal rating TRZAWR ([7]; Rate 0.0630 kg/ha): 5.5
- Preemergence herbicidal rating CHEAL ([8]; rate 0.0313 kg/ha): 0.0
- Preemergence herbicidal rating CHEAL ([8]; rate 0.0625 kg/ha): 0.0
- Preemergence herbicidal rating CHEAL ([8]; rate 0.1250 kg/ha): 9.0
- Preemergence herbicidal rating CHEAL ([8]; rate 0.2500 kg/ha): 9.0
- Postemergence herbicidal rating ECHCG ([9]; Rate 0.0158 kg/ha): 0.0
- Postemergence herbicidal rating ECHCG ([9]; Rate 0.0315 kg/ha): 0.0
- Postemergence herbicidal rating ECHCG ([9]; Rate 0.0630 kg/ha): 0.0
- Postemergence herbicidal rating CHEAL ([10]; Rate 0.0158 kg/ha): 0.0
- Postemergence herbicidal rating CHEAL ([10]; Rate 0.0315 kg/ha): 0.0
- Postemergence herbicidal rating CHEAL ([10]; Rate 0.0630 kg/ha): 3.0
- Herbicidal rating MOOVA ([11]; 0.1250 kg/ha): 1.5
- Herbicidal rating MOOVA ([11]; 0.2500 kg/ha): 4.5
- Preemergence herbicidal rating ABUTH ([12]; rate 0.0313 kg/ha): 9.0
- Preemergence herbicidal rating ABUTH ([12]; rate 0.0625 kg/ha): 9.0
- Preemergence herbicidal rating ABUTH ([12]; rate 0.1250 kg/ha): 9.0
- Preemergence herbicidal rating ABUTH ([12]; rate 0.2500 kg/ha): 9.0
- Postemergence herbicidal rating CASOB ([13]; Rate 0.0158 kg/ha): 0.0
- Postemergence herbicidal rating CASOB ([13]; Rate 0.0315 kg/ha): 0.0
- Postemergence herbicidal rating CASOB ([13]; Rate 0.0630 kg/ha): 0.0
- Postemergence herbicidal rating IPOHE ([14]; Rate 0.0158 kg/ha): 0.0
- Postemergence herbicidal rating IPOHE ([14]; Rate 0.0315 kg/ha): 0.0
- Postemergence herbicidal rating IPOHE ([14]; Rate 0.0630 kg/ha): 9.0
- Preemergence herbicidal rating ORYSAT ([15]; rate 0.0313 kg/ha): 1.0
- Preemergence herbicidal rating ORYSAT ([15]; rate 0.0625 kg/ha): 1.0
- Preemergence herbicidal rating ORYSAT ([15]; rate 0.1250 kg/ha): 1.0
- Preemergence herbicidal rating ORYSAT ([15]; rate 0.2500 kg/ha): 4.0
- Preemergence herbicidal rating GLXMAW ([16]; rate 0.0313 kg/ha): 2.0
- Preemergence herbicidal rating GLXMAW ([16]; rate 0.0625 kg/ha): 3.0
- Preemergence herbicidal rating GLXMAW ([16]; rate 0.1250 kg/ha): 1.0
- Preemergence herbicidal rating GLXMAW ([16]; rate 0.2500 kg/ha): 4.0

SMILES: Cn1c(C(F)(F)F)cc(=O)n(-c2cc(N=C3SCC(=O)N3CCC(=O)O)c(Cl)cc2F)c1=O [Compound 31, 2-{{2-Chloro-5-[3,6-dihydro-3-methyl-2,6-dioxo-4-(trifluoromethyl)-1(2H)-pyrimidinyl]-4-fluoro-phenyl}imino}-4-oxo-3-thiazolidinepropionic acid]
- Preemergence herbicidal rating CASOB ([1]; rate 0.0625 kg/ha): 0.0
- Preemergence herbicidal rating CASOB ([1]; rate 0.1250 kg/ha): 2.0
- Preemergence herbicidal rating CASOB ([1]; rate 0.2500 kg/ha): 1.0
- Preemergence herbicidal rating IPOHE ([2]; rate 0.0625 kg/ha): 0.0
- Preemergence herbicidal rating IPOHE ([2]; rate 0.1250 kg/ha): 5.0
- Preemergence herbicidal rating IPOHE ([2]; rate 0.2500 kg/ha): 9.0
- Herbicidal rating SAGPY ([3]; 0.0625 kg/ha): 0.0
- Herbicidal rating SAGPY ([3]; 0.1250 kg/ha): 0.0
- Herbicidal rating SAGPY ([3]; 0.2500 kg/ha): 0.0
- Postemergence herbicidal rating GLXMAW ([4]; Rate 0.0158 kg/ha): 6.5
- Postemergence herbicidal rating GLXMAW ([4]; Rate 0.0315 kg/ha): 6.5
- Postemergence herbicidal rating GLXMAW ([4]; Rate 0.0630 kg/ha): 7.0
- Postemergence herbicidal rating AMBEL ([5]; Rate 0.0158 kg/ha): 0.0
- Postemergence herbicidal rating AMBEL ([5]; Rate 0.0315 kg/ha): 2.0
- Postemergence herbicidal rating AMBEL ([5]; Rate 0.0630 kg/ha): 7.0
- Preemergence herbicidal rating AMBEL ([6]; rate 0.0625 kg/ha): 0.0
- Preemergence herbicidal rating AMBEL ([6]; rate 0.1250 kg/ha): 4.0
- Preemergence herbicidal rating AMBEL ([6]; rate 0.2500 kg/ha): 9.0
- Postemergence herbicidal rating TRZAWR ([7]; Rate 0.0158 kg/ha): 5.0
- Postemergence herbicidal rating TRZAWR ([7]; Rate 0.0315 kg/ha): 5.5
- Postemergence herbicidal rating TRZAWR ([7]; Rate 0.0630 kg/ha): 6.5
- Preemergence herbicidal rating CHEAL ([8]; rate 0.0625 kg/ha): 0.0
- Preemergence herbicidal rating CHEAL ([8]; rate 0.1250 kg/ha): 9.0
- Preemergence herbicidal rating CHEAL ([8]; rate 0.2500 kg/ha): 9.0
- Postemergence herbicidal rating ECHCG ([9]; Rate 0.0158 kg/ha): 0.0
- Postemergence herbicidal rating ECHCG ([9]; Rate 0.0315 kg/ha): 0.0
- Postemergence herbicidal rating ECHCG ([9]; Rate 0.0630 kg/ha): 5.0
- Postemergence herbicidal rating CHEAL ([10]; Rate 0.0158 kg/ha): 0.0
- Postemergence herbicidal rating CHEAL ([10]; Rate 0.0315 kg/ha): 2.0
- Postemergence herbicidal rating CHEAL ([10]; Rate 0.0630 kg/ha): 7.0
- Herbicidal rating MOOVA ([11]; 0.0625 kg/ha): 0.0
- Herbicidal rating MOOVA ([11]; 0.1250 kg/ha): 0.0
- Herbicidal rating MOOVA ([11]; 0.2500 kg/ha): 2.5
- Preemergence herbicidal rating ABUTH ([12]; rate 0.0625 kg/ha): 0.0
- Preemergence herbicidal rating ABUTH ([12]; rate 0.1250 kg/ha): 9.0
- Preemergence herbicidal rating ABUTH ([12]; rate 0.2500 kg/ha): 9.0
- Postemergence herbicidal rating CASOB ([13]; Rate 0.0158 kg/ha): 0.0
- Postemergence herbicidal rating CASOB ([13]; Rate 0.0315 kg/ha): 0.0
- Postemergence herbicidal rating CASOB ([13]; Rate 0.0630 kg/ha): 0.0
- Postemergence herbicidal rating IPOHE ([14]; Rate 0.0158 kg/ha): 9.0
- Postemergence herbicidal rating IPOHE ([14]; Rate 0.0315 kg/ha): 9.0
- Postemergence herbicidal rating IPOHE ([14]; Rate 0.0630 kg/ha): 9.0
- Preemergence herbicidal rating ORYSAT ([15]; rate 0.0625 kg/ha): 0.0
- Preemergence herbicidal rating ORYSAT ([15]; rate 0.1250 kg/ha): 2.0
- Preemergence herbicidal rating ORYSAT ([15]; rate 0.2500 kg/ha): 6.0
- Preemergence herbicidal rating GLXMAW ([16]; rate 0.0625 kg/ha): 3.0
- Preemergence herbicidal rating GLXMAW ([16]; rate 0.1250 kg/ha): 5.0
- Preemergence herbicidal rating GLXMAW ([16]; rate 0.2500 kg/ha): 6.0
